According to ChEMBL document CHEMBL1201862, “PubChem BioAssay data set” (2004):
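Five compound concentrations were applied to cells in 96-well plates for 48 hours; endpoints were derived by simple linear interpolation of the resulting dose-response curve. The concentration for 50% growth inhibition is given as GI50.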 Active and inactive are the calls of the source. No stated cut-off is given here; in the data, active = GI50 up to about 1.1 µM and inactive = higher.

Experiments:
Assay in all cases: NCI-60 cell line screen, 48 h
LOX IMVI = system: LOX IMVI
KM12 = system: KM12
HCT-15 = system: HCT-15
NCI-H522 = system: NCI-H522
SNB-19 = system: SNB-19
HOP-62 = system: HOP-62
A549 = system: A549
NCI-H23 = system: NCI-H23
M14 = system: M14
TK-10 = system: TK-10
UACC-257 = system: UACC-257
CAKI-1 = system: CAKI-1
MCF7 = system: MCF7
HT-29 = system: HT-29
SK-MEL-28 = system: SK-MEL-28
U-251 = system: U-251
OVCAR-5 = system: OVCAR-5
BT-549 = system: BT-549
ACHN = system: ACHN
MDA-MB-435 = system: MDA-MB-435
CCRF-CEM = system: CCRF-CEM
Malme-3M = system: Malme-3M
IGROV-1 = system: IGROV-1
SF-539 = system: SF-539
RPMI-8226 = system: RPMI-8226
NCI-H460 = system: NCI-H460
Hs-578T = system: Hs-578T
SK-MEL-2 = system: SK-MEL-2
UO-31 = system: UO-31
OVCAR-4 = system: OVCAR-4
SN12C = system: SN12C
SK-OV-3 = system: SK-OV-3
SR = system: SR
HCC 2998 = system: HCC 2998
SF-295 = system: SF-295
HL-60 = system: HL-60
HOP-92 = system: HOP-92
DU-145 = system: DU-145
MDA-MB-231 = system: MDA-MB-231
MDA-N = system: MDA-N
MOLT-4 = system: MOLT-4
COLO 205 = system: COLO 205
SF-268 = system: SF-268
OVCAR-8 = system: OVCAR-8
786-0 = system: 786-0
UACC-62 = system: UACC-62
OVCAR-3 = system: OVCAR-3
K562 = system: K562
HCT-116 = system: HCT-116
PC-3 = system: PC-3
NCI/ADR-RES = system: NCI/ADR-RES
NCI-H226 = system: NCI-H226
SK-MEL-5 = system: SK-MEL-5
T47D = system: T47D
EKVX = system: EKVX
A498 = system: A498
SW-620 = system: SW-620
RXF 393 = system: RXF 393

C=CCOC(=O)c1c(C)[n+]([O-])c2cc(Cl)c(Cl)cc2[n+]1[O-]
GI50 (LOX IMVI): 15.5 µM (inactive)
GI50 (KM12): 29.7 µM (inactive)
GI50 (HCT-15): 13.5 µM
GI50 (NCI-H522): 12.4 µM (inactive)
GI50 (SNB-19): 74.8 µM (inactive)
GI50 (HOP-62): 25.5 µM (inactive)
GI50 (A549): 23 µM (inactive)
GI50 (NCI-H23): 14.4 µM (inactive)
GI50 (M14): 18.2 µM (inactive)
GI50 (TK-10): 29.4 µM (inactive)
GI50 (UACC-257): 18.7 µM (inactive)
GI50 (CAKI-1): 19.2 µM (inactive)
GI50 (MCF7): 20.5 µM (inactive)
GI50 (HT-29): 18.2 µM (inactive)
GI50 (SK-MEL-28): 16.1 µM (inactive)
GI50 (U-251): 31.8 µM (inactive)
GI50 (OVCAR-5): 30.4 µM (inactive)
GI50 (BT-549): 34.4 µM (inactive)
GI50 (ACHN): 23.6 µM (inactive)
GI50 (MDA-MB-435): 19.8 µM (inactive)
GI50 (CCRF-CEM): 17.3 µM (inactive)
GI50 (Malme-3M): 28.5 µM (inactive)
GI50 (IGROV-1): 4.62 µM (inactive)
GI50 (SF-539): 21.8 µM (inactive)
GI50 (RPMI-8226): 12.4 µM (inactive)
GI50 (NCI-H460): 18.7 µM (inactive)
GI50 (Hs-578T): 27.5 µM (inactive)
GI50 (SK-MEL-2): 13.6 µM (inactive)
GI50 (UO-31): 23.3 µM (inactive)
GI50 (OVCAR-4): 7.23 µM (inactive)
GI50 (SN12C): 24.3 µM (inactive)
GI50 (SK-OV-3): 28.8 µM (inactive)
GI50 (SR): 4.54 µM (inactive)
GI50 (HCC 2998): 12.9 µM (inactive)
GI50 (SF-295): 32.6 µM (inactive)
GI50 (HL-60): 16.6 µM (inactive)
GI50 (HOP-92): 13.7 µM (inactive)
GI50 (DU-145): 29.6 µM (inactive)
GI50 (MDA-MB-231): 24 µM (inactive)
GI50 (MDA-N): 20.6 µM (inactive)
GI50 (MOLT-4): 15.1 µM (inactive)
GI50 (COLO 205): 17.9 µM (inactive)
GI50 (SF-268): 14.7 µM (inactive)
GI50 (OVCAR-8): 19.4 µM (inactive)
GI50 (786-0): 29.4 µM (inactive)
GI50 (UACC-62): 20.2 µM (inactive)
GI50 (OVCAR-3): 20.1 µM (inactive)
GI50 (K562): 27.9 µM (inactive)
GI50 (HCT-116): 17.8 µM (inactive)
GI50 (PC-3): 31.6 µM (inactive)
GI50 (NCI/ADR-RES): 20.6 µM (inactive)
GI50 (NCI-H226): 19.1 µM (inactive)
GI50 (SK-MEL-5): 19 µM (inactive)
GI50 (T47D): 18.9 µM (inactive)
GI50 (EKVX): 18.8 µM (inactive)
GI50 (A498): 27.5 µM (inactive)

Cc1cccc2nc(-c3ccccc3)cc(=O)n12
GI50 (KM12): > 100 µM (inactive)
GI50 (HCT-15): 94 µM
GI50 (NCI-H522): 58.9 µM (inactive)
GI50 (SNB-19): > 100 µM (inactive)
GI50 (HOP-62): > 100 µM (inactive)
GI50 (A549): > 100 µM (inactive)
GI50 (NCI-H23): > 100 µM (inactive)
GI50 (M14): > 100 µM (inactive)
GI50 (TK-10): 68.7 µM (inactive)
GI50 (UACC-257): 91.8 µM (inactive)
GI50 (MCF7): 50.2 µM (inactive)
GI50 (SW-620): > 100 µM (inactive)
GI50 (HT-29): > 100 µM (inactive)
GI50 (SK-MEL-28): > 100 µM (inactive)
GI50 (U-251): > 100 µM (inactive)
GI50 (OVCAR-5): > 100 µM (inactive)
GI50 (BT-549): 85.5 µM (inactive)
GI50 (ACHN): 43.1 µM (inactive)
GI50 (MDA-MB-435): > 10 µM (inactive)
GI50 (CCRF-CEM): > 100 µM (inactive)
GI50 (Malme-3M): > 100 µM (inactive)
GI50 (IGROV-1): 49.8 µM (inactive)
GI50 (SF-539): > 100 µM (inactive)
GI50 (RPMI-8226): > 100 µM (inactive)
GI50 (NCI-H460): > 100 µM (inactive)
GI50 (Hs-578T): 12.5 µM (inactive)
GI50 (OVCAR-4): > 100 µM (inactive)
GI50 (SN12C): 69.2 µM (inactive)
GI50 (SK-OV-3): 82.8 µM (inactive)
GI50 (SR): 87.5 µM (inactive)
GI50 (HCC 2998): > 100 µM (inactive)
GI50 (SF-295): > 100 µM (inactive)
GI50 (HL-60): > 100 µM (inactive)
GI50 (HOP-92): 61.7 µM (inactive)
GI50 (RXF 393): 51.8 µM (inactive)
GI50 (DU-145): > 100 µM (inactive)
GI50 (MDA-MB-231): > 100 µM (inactive)
GI50 (MDA-N): > 100 µM (inactive)
GI50 (MOLT-4): 63.5 µM (inactive)
GI50 (COLO 205): > 100 µM (inactive)
GI50 (SF-268): > 100 µM (inactive)
GI50 (OVCAR-8): 88.3 µM (inactive)
GI50 (786-0): > 100 µM (inactive)
GI50 (UACC-62): 44.1 µM (inactive)
GI50 (OVCAR-3): > 100 µM (inactive)
GI50 (K562): > 100 µM (inactive)
GI50 (HCT-116): > 100 µM (inactive)
GI50 (PC-3): 43.7 µM (inactive)
GI50 (NCI/ADR-RES): 44.9 µM (inactive)
GI50 (NCI-H226): 30.1 µM (inactive)
GI50 (SK-MEL-5): 38.2 µM (inactive)
GI50 (T47D): 14 µM (inactive)
GI50 (EKVX): 7.26 µM (inactive)
